Numbered stars: 1 amine (or outer) side, 2 acyl side, 3 side chain; on linkers, the order of the positions; unused ones are H or OH. Bridge positions count the residues as written; N and C are the ends. Square brackets hold non-standard residues; d marks the D form. Peptide text beside a SMILES is read from it. * marks the point of attachment. hPhe(3-Cl-4-CF3) = N[C@@H](CCc1ccc(C(F)(F)F)c(Cl)c1)C(=O)O; hPhe(4-CF3) = N[C@@H](CCc1ccc(C(F)(F)F)cc1)C(=O)O; NMePhe(4-Cl) = CN[C@@H](Cc1ccc(Cl)cc1)C(=O)O; NMePhe(2-Cl) = CN[C@@H](Cc1ccccc1Cl)C(=O)O; hPhe(3-Cl) = N[C@@H](CCc1cccc(Cl)c1)C(=O)O; NMedβ3hAla = C[C@H](CC(=O)[*:2])N(C)[*:1]; hPhe(4-F) = N[C@@H](CCc1ccc(F)cc1)C(=O)O; NMeGly(cPent) = CN[C@H](C(=O)O)C1CCCC1; NMeCha = CN[C@@H](CC1CCCCC1)C(=O)O; Hyp = O=C(O)[C@@H]1C[C@@H](O)CN1; NMeChg = CN[C@H](C(=O)O)C1CCCCC1; NMeF = CN[C@@H](Cc1ccccc1)C(=O)O; NMeD = CN[C@@H](CC(=O)O)C(=O)O; NMeL = CN[C@@H](CC(C)C)C(=O)O; NMeNva = CCC[C@H](NC)C(=O)O; NMeV = CN[C@H](C(=O)O)C(C)C; d(β3hA) = C[C@@H](N)CC(=O)O; NMeS = CN[C@@H](CO)C(=O)O; Pip = O=C(O)[C@@H]1CCCCN1; NMeA = CN[C@@H](C)C(=O)O; NMeAib = CNC(C)(C)C(=O)O; Nle = CCCC[C@H](N)C(=O)O; Piperidide = C1CCN(*)CC1; dNMeA = CN[C@H](C)C(=O)O; Ac5c = NC1(C(=O)O)CCCC1; Aze = O=C(O)[C@@H]1CCN1; CH2CMe2OH = CC(C)(O)C*; NBuGly = CCCCNCC(=O)O; Aib = CC(C)(N)C(=O)O; Isopentyl = CC(C)CC*; Ethyl(2-OH) = OCC*; Sar = CNCC(=O)O

Among the data in patent US20240148821A1, “PHARMACEUTICAL USE OF CYCLIC PEPTIDE COMPOUND” (CHUGAI SEIYAKU KABUSHIKI KAISHA, priority 2021, published 2024) are IC50 values, retold here.

This test concerns the target protein-protein interaction between Kras and SOS1 (biotin-tagged human Kras loaded with GDP, His-tagged human SOS1) (Homo sapiens (Human), UniProt P01116, G12D). The experiment in a line: Protein-protein interaction inhibition between Kras and SOS1 (KrasG12D-SOS PPI) using AlphaScreen.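 Note: kras produced in E. coli, Ni-coupled donor beads and streptavidin acceptor beads, excitation 680 nm with emission detected at 520–620 nm via singlet oxygen transfer.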 To be noted: AlphaScreen; biotin-tagged human Kras loaded with GDP, His-tagged human SOS1; read-out: KRAS G12D-SOS PPI IC50. In kind it is biochemical. On the technique in general: Bead proximity is the source of the signal in Alpha formats.
Broadly, the IC50 is the concentration needed to halve the response being measured. For the compound `CCCCN1CC(=O)N(C)CC(=O)N(C)[C@@H](COCCC(C)C)C(=O)N(C)CC(=O)N[C@@H](CCc2ccc(C(F)(F)F)c(Cl)c2)C(=O)N[C@@H](COCC(C)(C)O)C(=O)NC(C)(C)C(=O)N(C)[C@@H](CC(C)C)C(=O)N[C@H](C)CC(=O)N(C)[C@@H](CC(C)C)C(=O)N[C@@H]([C@@H](C)CC)C1=O` [Compound 1473] (cyclo([Aib][NMeL][d(β3hA)][NMeL]I[NBuGly][Sar][NMeS](Isopentyl)[Sar][hPhe(3-Cl-4-CF3)]S(CH2CMe2OH))), the IC50 worked out at 390 nM.

Take `CC[C@H](C)[C@@H]1NC(=O)[C@H](CC(C)C)N(C)C(=O)C[C@@H](C(=O)N2CCCCC2)N(C)C(=O)[C@H](C2CCCCC2)N(C)C(=O)C2(CCCC2)NC(=O)[C@@H]2C[C@@H](OCCO)CN2C(=O)[C@H](CCc2ccc(C(F)(F)F)c(Cl)c2)NC(=O)CN(C)C(=O)[C@H](CC2CCCCC2)N(C)C(=O)CN(C)C(=O)CN(C)C1=O` [Compound 2122, (3S,9S,18S,21S,25S,28S,34S,36R)-3-[2-[3-chloro-4-(trifluoromethyl)phenyl]ethyl]-28-cyclohexyl-9-(cyclohexylmethyl)-36-(2-hydroxyethoxy)-21-isobutyl-7,10,13,16,22,26,29-heptamethyl-18-[(1S)-1-methylpropyl]-25-(piperidine-1-carbonyl)spiro[1,4,7,10,13,16,19,22,26,29,32-undecazabicyclo[32.3.0]heptatriacontane-31,1′-cyclopentane]-2,5,8,11,14,17,20,23,27,30,33-undecone] ([NMeL]I[Sar][Sar][NMeCha][Sar][hPhe(3-Cl-4-CF3)][Hyp](Ethyl(2-OH))[Ac5c][NMeChg][NMeD]-Piperidide; lactam N-11): the IC50 was determined as 0.46 nM.

For `CC[C@H](C)[C@@H]1NC(=O)[C@H](C)N(C)C(=O)C[C@@H](C)NC(=O)[C@H](CC(C)C)N(C)C(=O)[C@H](Cc2ccccc2)N(C)C(=O)[C@H](CC(C)C)N(C)C(=O)[C@H](CCc2ccc(C(F)(F)F)cc2)NC(=O)CN(C)C(=O)[C@H](Cc2ccc(Cl)cc2)N(C)C(=O)CN(C)C(=O)CN(C)C1=O` [Compound 546] (cyclo(I[Sar][Sar][NMePhe(4-Cl)][Sar][hPhe(4-CF3)][NMeL][NMeF][NMeL][d(β3hA)][NMeA])), the IC50 amounted to 130 nM.

With `CCCC[C@@H]1NC(=O)[C@H](CCc2ccc(C(F)(F)F)c(Cl)c2)NC(=O)CN(C)C(=O)[C@H](Cc2ccc(Cl)cc2)N(C)C(=O)CN(C)C(=O)CN(C)C(=O)[C@H]([C@@H](C)CC)NC(=O)[C@H](CC(C)C)N(C)C(=O)C[C@@H](C)N(C)C(=O)[C@H](CC(C)C)NC(=O)[C@H](Cc2ccccc2)N(C)C1=O` [Compound 566] (cyclo(I[Sar][Sar][NMePhe(4-Cl)][Sar][hPhe(3-Cl-4-CF3)][Nle][NMeF]L[NMedβ3hAla][NMeL])), the IC50 was found to be 160 nM.

For `CC[C@H](C)[C@@H]1NC(=O)[C@H](C)NC(=O)C[C@@H](C)N(C)C(=O)[C@H](CC(C)C)N(C)C(=O)[C@H](Cc2ccccc2)N(C)C(=O)[C@H](CC(C)C)NC(=O)[C@H](CCc2ccc(C(F)(F)F)cc2)NC(=O)CN(C)C(=O)[C@H](Cc2ccc(Cl)cc2)N(C)C(=O)CN(C)C(=O)CN(C)C1=O` [Compound 406] (cyclo(AI[Sar][Sar][NMePhe(4-Cl)][Sar][hPhe(4-CF3)]L[NMeF][NMeL][NMedβ3hAla])), the IC50 turned out to be 250 nM.

As to `CC[C@H](C)[C@@H]1NC(=O)[C@@H]2CCCCN2C(=O)C[C@@H](C)NC(=O)[C@H](CC(C)C)N(C)C(=O)[C@H](Cc2ccccc2)N(C)C(=O)[C@@H]2CCCN2C(=O)[C@H](CCc2ccc(C(F)(F)F)cc2)NC(=O)CN(C)C(=O)[C@H](Cc2ccc(Cl)cc2)N(C)C(=O)CN(C)C(=O)CN(C)C1=O` [Compound 632] (cyclo(I[Sar][Sar][NMePhe(4-Cl)][Sar][hPhe(4-CF3)]P[NMeF][NMeL][d(β3hA)][Pip])), the IC50 stood at 73 nM.

Consider `CCC[C@H]1C(=O)N[C@@H]([C@@H](C)CC)C(=O)N(C)[C@@H](C)C(=O)N2CC[C@H]2C(=O)N(C)[C@@H](CC2CCCCC2)C(=O)N(C)CC(=O)N[C@@H](CCc2ccc(C(F)(F)F)c(Cl)c2)C(=O)N2CCC[C@H]2C(=O)NC2(CCCC2)C(=O)N(C)[C@@H](C(C)C)C(=O)N[C@H](C)CC(=O)N1C` [Compound 1564] (cyclo([Ac5c][NMeV][d(β3hA)][NMeNva]I[NMeA][Aze][NMeCha][Sar][hPhe(3-Cl-4-CF3)]P)), for which the IC50 is 38 nM.

For the compound `CC[C@H](C)[C@@H]1NC(=O)[C@H](CC(C)C)N(C)C(=O)C[C@@H](C)N(C)C(=O)[C@H](CC(C)C)NC(=O)C(C)(C)N(C)C(=O)[C@H](CC(C)C)NC(=O)[C@H](CCc2ccc(C(F)(F)F)c(Cl)c2)NC(=O)[C@@H](C)N(C)C(=O)[C@H](CC2CCCCC2)N(C)C(=O)CN(C)C(=O)CN(C)C1=O` [Compound 1389] (cyclo(I[Sar][Sar][NMeCha][dNMeA][hPhe(3-Cl-4-CF3)]L[NMeAib]L[NMedβ3hAla][NMeL])), the IC50 worked out at 240 nM.

In the case of `CC[C@H](C)[C@@H]1NC(=O)[C@H](C)N(C)C(=O)C[C@@H](C(=O)N2CCCCC2)N(C)C(=O)[C@H](C(C)C)N(C)C(=O)C2(CCCC2)NC(=O)[C@@H]2CCCN2C(=O)[C@H](CCc2cccc(Cl)c2)NC(=O)CN(C)C(=O)[C@H](CC2CCCCC2)N(C)C(=O)[C@@H]2CCN2C(=O)[C@H](C)N(C)C1=O` [Compound 625] ([NMeA]I[NMeA][Aze][NMeCha][Sar][hPhe(3-Cl)]P[Ac5c][NMeV][NMeD]-Piperidide; lactam N-11), the concentration for half-maximal inhibition (IC50) was 70 nM.

As for `CC[C@H](C)[C@@H]1NC(=O)[C@H](C)N(C)C(=O)C[C@@H](C)N(C)C(=O)[C@H](C(C)C)N(C)C(=O)C2(CCCC2)NC(=O)[C@@H]2CCCN2C(=O)[C@H](CCc2ccc(C(F)(F)F)c(Cl)c2)NC(=O)[C@@H](C)N(C)C(=O)[C@H](CC2CCCCC2)N(C)C(=O)[C@@H]2CCN2C(=O)[C@H](C)N(C)C1=O` [Compound 1773] (cyclo([Ac5c][NMeV][NMedβ3hAla][NMeA]I[NMeA][Aze][NMeCha][dNMeA][hPhe(3-Cl-4-CF3)]P)), the IC50 is 51 nM.

For the compound `CC[C@H](C)[C@@H]1NC(=O)[C@H](C)N(C)C(=O)C[C@@H](C(=O)N2CCCCC2)N(C)C(=O)[C@H](C(C)C)N(C)C(=O)C2(CCCC2)NC(=O)[C@@H]2CCCN2C(=O)[C@H](CCc2ccc(F)cc2)NC(=O)CN(C)C(=O)[C@H](CC2CCCCC2)N(C)C(=O)[C@@H]2CCN2C(=O)[C@H](C)N(C)C1=O` [Compound 860] ([NMeA]I[NMeA][Aze][NMeCha][Sar][hPhe(4-F)]P[Ac5c][NMeV][NMeD]-Piperidide; lactam N-11), the IC50 was 210 nM.

As to `CC[C@H](C)[C@@H]1NC(=O)[C@H](CC(C)C)N(C)C(=O)C[C@@H](C(=O)N2CCCCC2)NC(=O)[C@H](C(C)C)N(C)C(=O)C2(CCCC2)NC(=O)[C@@H]2CCCN2C(=O)[C@H](CCc2ccc(C(F)(F)F)c(Cl)c2)NC(=O)CN(C)C(=O)[C@H](CC2CCCCC2)N(C)C(=O)[C@@H]2CCN2C(=O)[C@H](C)N(C)C1=O` [Compound 1353] ([NMeL]I[NMeA][Aze][NMeCha][Sar][hPhe(3-Cl-4-CF3)]P[Ac5c][NMeV]D-Piperidide; lactam N-11), the IC50 came out at 11 nM.

Consider `CC[C@H](C)[C@@H]1NC(=O)[C@H](C)N(C)C(=O)C[C@@H](C)NC(=O)[C@H](C2CCCC2)N(C)C(=O)C2(CCCC2)NC(=O)[C@@H]2CCCN2C(=O)[C@H](CCc2ccc(C(F)(F)F)c(Cl)c2)NC(=O)[C@@H](C)N(C)C(=O)[C@H](Cc2ccccc2Cl)N(C)C(=O)[C@@H]2CCN2C(=O)[C@H](C)N(C)C1=O` [Compound 464] (cyclo([Ac5c][NMeGly(cPent)][d(β3hA)][NMeA]I[NMeA][Aze][NMePhe(2-Cl)][dNMeA][hPhe(3-Cl-4-CF3)]P)), for which the IC50 was 130 nM.
